Experimental data: the supplement of paper PMC10883282

Experiments:
Test in all cases: standardised AUC of viability dose-response curve (72 h) (fraction (0-1)); higher = less growth inhibition (more resistant)
HT1080 = test system: HT1080
Method in brief: (§1)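 After 72 h with 2.5 µl of compound (compound-plate series 10 mM to 0.0002 mM), triplicate wells of sarcoma cell lines in 384-well plates were read with ATPLite, with viability scaled 1 (full) to 0 (none) and fitted with a four-parameter log-logistic model. The values give the standardised area under the dose-response curve in log-dose space from a modified drexplorer computeAUC. A value of 1 means no response and 0 means full response.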

G401 = test system: G401
Method in brief: as §1

VA-ES-BJ = test system: VA-ES-BJ
Method in brief: as §1

SW1353 = test system: SW1353
Method in brief: as §1

MES-SA = test system: MES-SA
Method in brief: as §1

A204 = test system: A204
Method in brief: as §1

SW982 = test system: SW982
Method in brief: as §1

SW684 = test system: SW684
Method in brief: as §1

SW872 = test system: SW872
Method in brief: as §1

KHOS-NP = test system: KHOS-NP
Method in brief: as §1

SYO-1 = test system: SYO-1
Method in brief: as §1

HS729 = test system: HS729
Method in brief: as §1

SK-LMS-1 = test system: SK-LMS-1
Method in brief: as §1

KHOS-240S = test system: KHOS-240S
Method in brief: as §1

RD-ES = test system: RD-ES
Method in brief: as §1

RD = test system: RD
Method in brief: as §1

SK-ES-1 = test system: SK-ES-1
Method in brief: as §1

| SMILES | standardised AUC (HT1080) | standardised AUC (G401) | standardised AUC (VA-ES-BJ) | standardised AUC (SW1353) | standardised AUC (MES-SA) | standardised AUC (A204) | standardised AUC (SW982) | standardised AUC (SW684) | standardised AUC (SW872) | standardised AUC (KHOS-NP) | standardised AUC (SYO-1) | standardised AUC (HS729) | standardised AUC (SK-LMS-1) | standardised AUC (KHOS-240S) | standardised AUC (RD-ES) | standardised AUC (RD) | standardised AUC (SK-ES-1) |
| --- | --- | --- | --- | --- | --- | --- | --- | --- | --- | --- | --- | --- | --- | --- | --- | --- | --- |
| CC#CC(=O)N1CCC[C@H]1c1nc(-c2ccc(C(=O)Nc3ccccn3)cc2)c2c(N)nccn12 [ACALABRUTINIB] | 0.998 | 0.992 | 1 | 0.963 | 0.996 | 0.985 | 0.98 | 0.996 | 0.992 | 1 | 0.989 | 0.995 | 0.996 | 0.986 | 0.998 | 0.976 | 0.993 |
| N#CC1(c2ccc(NC(=O)c3cccnc3NCc3ccncc3)cc2)CCCC1 [APATINIB] | 0.991 | 0.956 | 1 | 0.965 | 0.972 | 0.821 | 0.998 | 0.987 | 0.98 | 0.968 | 0.893 | 0.942 | 0.982 | 0.966 | 0.98 | 0.996 | 0.988 |
| O=C(Nc1ccc(OC(F)(F)Cl)cc1)c1cnc(N2CC[C@@H](O)C2)c(-c2cc[nH]n2)c1 [ASCIMINIB] | 0.969 | 0.989 | 0.996 | 1 | 0.975 | 0.947 | 0.987 | 0.987 | 0.997 | 0.962 | 0.94 | 0.985 | 0.957 | 0.983 | 0.965 | 0.994 | 0.979 |
| CNC(=O)c1ccccc1Sc1ccc2c(/C=C/c3ccccn3)n[nH]c2c1 [AXITINIB] | 0.963 | 0.857 | 0.901 | 0.928 | 0.857 | 0.545 | 0.887 | 0.954 | 0.859 | 0.93 | 0.669 | 0.826 | 0.975 | 0.849 | 0.926 | 0.89 | 0.863 |
| Cc1cc2c(F)c(Oc3ncnn4cc(OC[C@@H](C)O)c(C)c34)ccc2[nH]1 [BRIVANIB] | 0.996 | 0.994 | 1 | 0.999 | 0.985 | 0.973 | 0.995 | 1 | 1 | 0.995 | 0.955 | 0.989 | 0.985 | 0.996 | 0.996 | 0.991 | 0.987 |
| CO[C@H]1C[C@@H]2CC[C@@H](C)[C@@](O)(O2)C(=O)C(=O)N2CCCC[C@H]2C(=O)O[C@H]([C@H](C)C[C@@H]2CC[C@@H](OCCO)[C@H](OC)C2)CC(=O)[C@H](C)/C=C(\C)[C@@H](O)[C@@H](OC)C(=O)[C@H](C)C[C@H](C)/C=C/C=C/C=C/1C [CERTICAN] | 0.962 | 0.849 | 0.604 | 0.835 | 0.548 | 0.633 | 0.728 | 0.841 | 0.688 | 0.971 | 0.885 | 0.926 | 0.645 | 0.819 | 0.76 | 0.765 | 0.684 |
| CC1(COc2ccc3c(c2)ncn3-c2ccc3cccc(N4CCC(N)CC4)c3n2)COC1 [CRENOLANIB] | 0.93 | 0.956 | 0.891 | 0.917 | 0.903 | 0.653 | 0.853 | 0.969 | 0.93 | 0.886 | 0.804 | 0.994 | 0.931 | 0.887 | 0.898 | 0.942 | 0.823 |
| CC(C)(C)c1nc(-c2cccc(NS(=O)(=O)c3c(F)cccc3F)c2F)c(-c2ccnc(N)n2)s1 [DABRAFENIB] | 0.924 | 0.921 | 0.876 | 0.925 | 0.866 | 0.881 | 0.723 | 0.97 | 0.586 | 0.863 | 0.946 | 0.853 | 0.779 | 0.96 | 0.854 | 0.941 | 0.812 |
| CCc1cnn2c(NCc3ccc[n+]([O-])c3)cc(N3CCCC[C@H]3CCO)nc12 [DINACICLIB] | 0.525 | 0.439 | 0.498 | 0.551 | 0.398 | 0.497 | 0.546 | 0.798 | 0.6 | 0.509 | 0.519 | 0.64 | 0.598 | 0.51 | 0.419 | 0.484 | 0.378 |
| C[C@H](Nc1ncnc2nc[nH]c12)c1cc2cccc(Cl)c2c(=O)n1-c1ccccc1 [DUVELISIB] | 0.996 | 0.912 | 0.884 | 0.879 | 0.901 | 0.864 | 0.915 | 0.666 | 0.869 | 0.985 | 0.921 | 0.902 | 0.834 | 0.946 | 0.915 | 0.941 | 0.917 |
| CC1(C)CC=C(c2nc(C3CC(C)(C)OC(C)(C)C3)ccc2NC(=O)c2nc(C#N)c[nH]2)CC1 [EDICOTINIB] | 0.984 | 0.987 | 0.991 | 1 | 0.971 | 0.985 | 1 | 1 | 1 | 0.994 | 1 | 0.931 | 0.99 | 0.987 | 0.994 | 0.984 | 0.976 |
| CC(C)(O)CNc1nc(Nc2ccnc(C(F)(F)F)c2)nc(-c2cccc(C(F)(F)F)n2)n1 [ENASIDENIB] | 0.999 | 0.992 | 0.991 | 0.99 | 0.99 | 0.972 | 1 | 0.973 | 0.998 | 0.981 | 0.958 | 0.997 | 0.998 | 0.995 | 0.992 | 0.984 | 0.945 |
| COC(=O)N[C@@H](C)CNc1nccc(-c2cn(C(C)C)nc2-c2cc(Cl)cc(NS(C)(=O)=O)c2F)n1 [ENCORAFENIB] | 0.933 | 0.922 | 0.923 | 0.941 | 0.9 | 0.922 | 0.818 | 0.961 | 0.665 | 0.903 | 0.977 | 0.925 | 0.887 | 0.956 | 0.903 | 0.896 | 0.843 |
| CN1CCN(c2ccc(C(=O)Nc3n[nH]c4ccc(Cc5cc(F)cc(F)c5)cc34)c(NC3CCOCC3)c2)CC1 [ENTRECTINIB] | 0.957 | 0.904 | 0.957 | 0.924 | 0.933 | 0.944 | 0.885 | 0.927 | 0.893 | 0.973 | 0.868 | 0.915 | 0.928 | 0.901 | 0.88 | 0.888 | 0.87 |
| Cn1cc(C2=C(c3cn(C4CCN(Cc5ccccn5)CC4)c4ccccc34)C(=O)NC2=O)c2ccccc21 [ENZASTAURIN] | 1 | 1 | 1 | 0.943 | 0.988 | 0.979 | 0.961 | 0.961 | 0.973 | 0.992 | 0.965 | 0.995 | 0.953 | 0.978 | 1 | 0.995 | 0.986 |
| O=S(=O)(c1cccc2cnccc12)N1CCCNCC1 [FASUDIL] | 0.997 | 1 | 0.996 | 0.981 | 0.993 | 0.981 | 0.991 | 0.978 | 0.992 | 0.994 | 0.997 | 0.982 | 0.986 | 0.982 | 1 | 1 | 1 |
| O=C(Nc1nc2cccc(-c3ccc(CN4CCS(=O)(=O)CC4)cc3)n2n1)C1CC1 [FILGOTINIB] | 0.991 | 0.993 | 0.96 | 0.949 | 0.987 | 0.985 | 0.993 | 0.994 | 0.979 | 0.991 | 0.892 | 0.906 | 0.987 | 0.991 | 0.998 | 0.985 | 0.981 |
| COc1cc(Nc2ncc(F)c(Nc3ccc4c(n3)N(COP(=O)(O)O)C(=O)C(C)(C)O4)n2)cc(OC)c1OC [FOSTAMATINIB] | 0.968 | 0.842 | 0.845 | 0.819 | 0.885 | 0.774 | 0.755 | 0.886 | 0.803 | 0.911 | 0.779 | 0.871 | 0.854 | 0.798 | 0.857 | 0.906 | 0.757 |
| Cc1cccc(-c2nn3c(c2-c2ccnc4ccc(C(N)=O)cc24)CCC3)n1 [GALUNISERTIB] | 0.982 | 0.993 | 1 | 0.976 | 0.969 | 0.976 | 0.992 | 0.992 | 0.962 | 0.956 | 0.853 | 0.91 | 0.974 | 0.955 | 0.972 | 0.998 | 0.968 |
| CN1CC[C@@H](NC(=O)Nc2ccc(C#N)cc2)C[C@@H]1c1nc2ccccc2[nH]1 [GLASDEGIB] | 0.988 | 0.976 | 0.984 | 0.988 | 0.976 | 0.982 | 0.991 | 0.99 | 0.988 | 0.992 | 0.976 | 0.985 | 0.982 | 0.991 | 0.959 | 0.987 | 0.953 |
| CC(C)NC[C@@H](C(=O)N1CCN(c2ncnc3c2[C@H](C)C[C@H]3O)CC1)c1ccc(Cl)cc1 [IPATASERTIB] | 0.969 | 0.836 | 0.769 | 0.891 | 0.781 | 0.843 | 0.916 | 0.848 | 0.805 | 0.954 | 0.791 | 0.817 | 0.885 | 0.921 | 0.848 | 0.898 | 0.851 |
| COC(=O)[C@@]1(O)C[C@H]2O[C@]1(C)n1c3ccccc3c3c4c(c5c6ccccc6n2c5c31)C(=O)NC4 [K-252A] | 0.818 | 0.745 | 0.7 | 0.766 | 0.631 | 0.617 | 0.628 | 0.774 | 0.68 | 0.776 | 0.668 | 0.756 | 0.666 | 0.717 | 0.647 | 0.81 | 0.543 |
| CCC(=O)N1CC[C@H](Nc2ncnc3c2CN(c2cnc(OC)c(C(F)(F)F)c2)CC3)C1 [LENIOLISIB] | 0.961 | 0.929 | 0.955 | 0.934 | 0.955 | 0.929 | 0.955 | 0.83 | 0.947 | 0.97 | 0.923 | 0.935 | 0.927 | 0.962 | 0.95 | 0.988 | 0.96 |
| C[C@]12O[C@H](C[C@]1(O)CO)n1c3ccccc3c3c4c(c5c6ccccc6n2c5c31)CNC4=O [LESTAURTINIB] | 0.802 | 0.821 | 0.667 | 0.764 | 0.64 | 0.646 | 0.614 | 0.805 | 0.655 | 0.762 | 0.656 | 0.762 | 0.721 | 0.72 | 0.62 | 0.821 | 0.526 |
